Values quoted from earlier work, collected in patent US20250091981A1, “PROCESS FOR THE PURIFICATION OF 5-AMINOSALICYLIC ACID” (CHEMI S.P.A., priority 2022, published 2025).

Legend:
[1] = value reported in the literature
[2] = established in the guidelines

Row | isoelectric pH [1] | SMILES | maximum daily intake limit [2] [ng]
1 | 3.7 | Nc1ccc(O)c(C(=O)O)c1 [Example 5-ASA, 5-Amino salicylic acid] | –
2 | – | CCN(CC)N=O [NDEA, N,N-diethyl-nitrosamine] | 26.5
